Data set [1] has as its system formate dehydrogenase (FDH, fdh) from Clostridium carboxidivorans P7T. Conditions: read-out: Km (for NADH); cited from earlier work.
The next data set concerns E. coli pACM4_pFRM_GFP. It is filed as cell-based. Conditions: 500 and 1000 μM HCHO, MOPS+0.1% glucose. An excerpt:
(§1) GFP expression correlated with HCHO concentration over time. Overnight LB cultures were transferred to MOPS+0.1% glucose for the experiment.

The next data set deals with E. coli pETM6_Pfrm_GFP. The format is cell-based. The following applies: 2 and 4 mM HCHO, MOPS+0.1% glucose.
Description: as §1

Data set [2] relates to E. coli Rosetta empty vector control (pET21_Empty). Nature of the data set: Growth of empty vector control E. coli in media spiked with formaldehyde. The format is cell-based. The following applies: LB plus formaldehyde (2 mM) or mixture of M9 and LB plus formaldehyde (1.5 mM). On the procedure: FIGS. 42A-B show growth of E. coli expressing HPS and PHI genes from M. gastri. The ability of E. coli to grow in A) LB or B) mixed M9:LB (3:1) spiked with formaldehyde was assessed. Log phase cultures of E. coli harboring pET_M.g.PHI_HPS (circles) or pET21_Empty (squares) were induced with 0.5 mM IPTG for 3 h before being diluted into test media containing 2 mM formaldehyde (LB) or 1.5 mM formaldehyde (M9:LB). Aliquots were taken from the cultures at the indicated time points to determine the optical density (OD600). Arrows indicate times in which the cultures were spiked with (A) 2 mM or (B) 1.5 mM formaldehyde.
Primers were designed to amplify the Mycobacterium gastri phi-hps operon, which encodes the genes necessary to fix formaldehyde to ribulose-5-phosphate yielding hexulose-6-phosphate, and then convert […] to fructose-6-phosphate. Genes were amplified and initially cloned into the expression vector pET21a (Novagen). This vector utilizes the T7 promoter, and was transformed into the Rosetta strain of E. coli. E. coli Rosetta expressing the M. gastri PHI-HPS operon was compared with an empty vector control for growth in LB with 2 mM formaldehyde (FIG. 42A-B). […] When the same strains were tested in M9 minimal media containing only formaldehyde (0.25 mM) as the sole carbon source, no increase in OD600 was observed (FIG. 43).

Data set [3] deals with E. coli pACM4_pFRM_GFP+pETM6-BstMDH. The format is cell-based. The following applies: 2000 and 4000 mM methanol, MOPS+0.1% glucose. The source says: Overnight LB cultures were transferred to MOPS+0.1% glucose for the experiment.
Substrate in data set [4]: CO
Nature of the data set: cells, lysate or membranes named. The following applies: other: crude cell extracts of E. coli, in vitro.

As a reminder, the Km is the concentration of substrate that gives half-maximal velocity. As to `NC(=O)C1=CN([C@@H]2O[C@H](COP(=O)(O)OP(=O)(O)OC[C@H]3O[C@@H](n4cnc5c(N)ncnc54)[C@H](O)[C@@H]3O)[C@@H](O)[C@H]2O)C=CC1` [NADH], the Michaelis-Menten constant (Km) in data set [1] is 50 µM.

Regarding `C=O` [formaldehyde], the growth result with E. coli pACM4_pFRM_GFP is “Retarded growth”; in the data set with E. coli pETM6_Pfrm_GFP it was “No growth was observed”; in data set [2], “unable to grow”.

With `CO` [methanol], the growth entry in data set [3] is “Retarded growth”.

B1: methanol dehydrogenase MDH1 (MDH) from Bacillus stearothermophilus (Geobacillus stearothermophilus) (protein)
chain: MKAAVVNEFKKALEIKEVERPKLEEGEVLVKIEACGVCHTDLHAAHGDWPIKPKLPLIPGHEGVGIVVEVAKGVKSIKVGDRVGIPWLYSACGECEYCLTGQETLCPHQLNGGYSVDGGYAEYCKAPADYVAKIPDNLDPVEVAPILCAGVTTYKALKVSGARPGEWVAIYGIGGLGHIALQYAKAMGLNVVAVDISDEKSKLAKDLGADIAINGLKEDPVKAIHDQVGGVHAAISVAVNKKAFEQAYQSVKRGGTLVVVGLPNADLPIPIFDTVLNGVSVKGSIVGTRKDMQEALDFAARGKVRPIVETAELEEINEVFERMEKGKINGRIVLKLKED
As for B1, the Km in data set [4] turned out to be 27000 µM.
